Test results as given in ChEMBL document CHEMBL1148794, “Structure-activity relationship of a series of inhibitors of monoacylglycerol hydrolysis--comparison with effects upon fatty acid amide hydrolase” (J Med Chem, 2007).

What was measured:
[1] = target: T1, Monoglyceride lipase (Rattus norvegicus) (UniProt Q8R431); assay: Inhibition of MGL in rat cerebellum membrane fractions assessed as [3H]2-oleoylglycerol hydrolysis at 100 uM; type: cell membranes
T1 sequence (whole entry): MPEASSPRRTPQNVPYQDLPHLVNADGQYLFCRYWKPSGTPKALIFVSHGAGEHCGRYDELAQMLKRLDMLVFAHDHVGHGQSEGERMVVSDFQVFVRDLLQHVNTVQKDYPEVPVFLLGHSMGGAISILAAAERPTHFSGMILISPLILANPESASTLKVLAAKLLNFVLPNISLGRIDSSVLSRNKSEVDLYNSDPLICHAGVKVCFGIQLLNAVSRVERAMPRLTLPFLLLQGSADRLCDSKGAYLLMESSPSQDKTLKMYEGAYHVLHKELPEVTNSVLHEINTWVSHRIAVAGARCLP

[2] = target: T2, Fatty-acid amide hydrolase 1 (Rattus norvegicus) (UniProt P97612); assay: Inhibition of FAAH in rat cerebellum membranes assessed as [3H]anandamide hydrolysis at 100 uM; type: cell membranes; conditions: Membrane
T2 sequence (whole entry): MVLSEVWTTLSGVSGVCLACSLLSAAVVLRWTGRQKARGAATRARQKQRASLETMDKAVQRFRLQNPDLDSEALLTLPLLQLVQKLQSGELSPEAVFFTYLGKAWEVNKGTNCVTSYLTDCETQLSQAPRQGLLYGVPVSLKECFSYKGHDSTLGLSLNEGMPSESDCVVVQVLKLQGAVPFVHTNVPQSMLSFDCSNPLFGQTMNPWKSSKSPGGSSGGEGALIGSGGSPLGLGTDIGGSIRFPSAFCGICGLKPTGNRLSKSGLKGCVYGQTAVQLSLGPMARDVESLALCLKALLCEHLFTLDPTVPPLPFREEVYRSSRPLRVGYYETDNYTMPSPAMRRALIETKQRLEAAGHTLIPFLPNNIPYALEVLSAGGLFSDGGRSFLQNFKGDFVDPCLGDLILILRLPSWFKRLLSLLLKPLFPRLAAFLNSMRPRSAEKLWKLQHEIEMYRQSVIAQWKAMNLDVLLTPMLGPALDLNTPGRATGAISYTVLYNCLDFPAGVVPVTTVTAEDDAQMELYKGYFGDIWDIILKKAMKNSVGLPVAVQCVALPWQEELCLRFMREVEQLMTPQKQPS

[3] = target: T3, Monoglyceride lipase (Rattus norvegicus, UniProt Q8R431); assay: (§1) Inhibition of MGL in rat cerebellum cytosolic fractions assessed as [3H]2-oleoylglycerol hydrolysis; type: tissue-based
T3 sequence (Q8R431 whole entry): T1 sequence (whole entry)

[4] = target: T1, Monoglyceride lipase (Rattus norvegicus); assay: as §1; type: tissue-based
[5] = target: T2, Fatty-acid amide hydrolase 1 (Rattus norvegicus); assay: (§2) Inhibition of FAAH in rat cerebellum membranes assessed as [3H]anandamide hydrolysis; type: cell membranes; conditions: Membrane
[6] = target: T4, Fatty-acid amide hydrolase 1 (Rattus norvegicus, UniProt P97612); assay: as §2; type: cell membranes, Membrane
T4 sequence (P97612 whole entry): T2 sequence (whole entry)

[7] = target: T1, Monoglyceride lipase (Rattus norvegicus); assay: (§3) Inhibition of MGL in rat cerebellum membrane fractions assessed as [3H]2-oleoylglycerol hydrolysis; type: cell membranes
[8] = target: T1, Monoglyceride lipase (Rattus norvegicus); assay: Inhibition of MGL in rat cerebellum cytosolic fractions assessed as [3H]2-oleoylglycerol hydrolysis at 100 uM; type: tissue-based
[9] = target: T3, Monoglyceride lipase; assay: as §3; type: cell membranes

| inhibition [1] | inhibition [2] | pI50 (-log I50, M) [4] | pI50 (-log10 of IC50 in M) [5] | IC50 [6] | Log I50 [7] | inhibition [8] | Compound | IC50 [3] | IC50 [9] |
| --- | --- | --- | --- | --- | --- | --- | --- | --- | --- |
| – | – | 4.67 | 4.48 | 33 µM | 4.1 | – | CCCCC/C=C\C/C=C\C/C=C\C/C=C\CCCC(=O)OCC1CCCO1 (stereo not drawn) | 21 µM | 75 µM |
| 46% | 78% | 4.37 | 4.98 | 11 µM | < 4 | – | CCCCC/C=C\C/C=C\C/C=C\C/C=C\CCCC(=O)OCC1CCOC1 (stereo not drawn) | 43 µM | – |
| – | – | 4.57 | 4.68 | 21 µM | 4 | – | CCCCC/C=C\C/C=C\C/C=C\C/C=C\CCCC(=O)OCCC1OCC(C)(C)CO1 | 27 µM | 99 µM |
| 18% | – | – | – | – | – | – | CCCCC/C=C\C/C=C\CCCCCCCC(=O)OCC1CO1 (racemic) | – | – |
| 8% | – | < 4 | 4.96 | 11 µM | < 4 | 6% | CCCCCCCC/C=C\CCCCCCCC(=O)OCC1CO1 (racemic) | – | – |
| – | – | 4.87 | 5.09 | 8.2 µM | 4.55 | 84% | CCCCCC/C=C\CCCCCCCC(=O)OCC1CO1 (racemic) | 13 µM | 28 µM |
| 33% | – | 4.64 | 4.73 | 19 µM | < 4 | – | CC/C=C\C/C=C\C/C=C\CCCCCCCC(=O)OCC1CCCCO1 (racemic) | 23 µM | – |
| 35% | – | < 4 | 4.53 | 29 µM | < 4 | 12% | CCCCCCCC/C=C\CCCCCCCC(=O)OCC1CCCCO1 (racemic) | – | – |
| 36% | 82% | < 4 | 5 | 10 µM | < 4 | 42% | CCCCCC/C=C\CCCCCCCC(=O)OCC1CCCCO1 (racemic) | – | – |
| 9% | – | < 4 | 4.45 | 35 µM | < 4 | 43% | O=C(OCC1CO1)c1ccc(-c2ccccc2)cc1 (racemic) | – | – |
| 24% | – | 5.5 | 4.28 | 53 µM | < 4 | 53% | O=C(OCC1CCCCO1)c1ccccc1 (racemic) | 3 µM | – |
| 19% | – | < 4 | 4.22 | 61 µM | < 4 | 40% | O=C(OCC1CO1)c1cccc(-c2ccccc2)c1 (racemic) | – | – |
| – | – | 4.97 | 5.8 | 1.6 µM | 4.3 | – | CC/C=C\C/C=C\C/C=C\CCCCCCCC(=O)OCC1CO1 (racemic) | 11 µM | 50 µM |
| 38% | – | 4.1 | 5.13 | 7.5 µM | < 4 | – | CCCCC/C=C\C/C=C\CCCCCCCC(=O)OCC1CCCCO1 (racemic) | 73 µM | – |
| 0.2% | 19% | < 4 | < 4 | – | < 4 | 14% | O=C(OCC1CO1)c1ccccc1 (racemic) | – | – |
| 18% | 5% | < 4 | < 4 | – | < 4 | 29% | O=C(OCC1CO1)c1ccccc1-c1ccccc1 (racemic) | – | – |

Second part, the compound before the results:

| Compound | inhibition [1] | inhibition [2] | pI50 (-log I50, M) [4] | pI50 (-log10 of IC50 in M) [5] | IC50 [6] | Log I50 [7] | inhibition [8] | IC50 [3] | IC50 [9] |
| --- | --- | --- | --- | --- | --- | --- | --- | --- | --- |
| CCCCC/C=C\C/C=C\C/C=C\C/C=C\CCCC(=O)OC1CCOCC1 | 33% | 63% | 4.5 | 5.3 | 5.3 µM | < 4 | 62% | 30 µM | – |
| CCCCC/C=C\C/C=C\C/C=C\C/C=C\CCCC(=O)OCc1ccc2c(c1)OCO2 | 3% | – | 4.35 | 4 | 91 µM | < 4 | – | 45 µM | – |
| CCCCC/C=C\C/C=C\C/C=C\C/C=C\CCCC(=O)OC[C@@H]1COC(C)(C)O1 | 38% | – | < 4 | 4.76 | 17 µM | < 4 | 46% | – | – |
| CCCCC/C=C\C/C=C\C/C=C\C/C=C\CCCC(=O)OC[C@H]1CO1 | – | – | 5.2 | – | 6 µM | < 4 | – | 6.3 µM | – |
| CCCCC/C=C\C/C=C\C/C=C\C/C=C\CCCC(=O)OC[C@H]1COC(C)(C)O1 | 34% | – | 4.22 | 4.55 | 28 µM | < 4 | – | 60 µM | – |
| CCCCC/C=C\C/C=C\C/C=C\C/C=C\CCCC(=O)NC[C@@H]1CCCO1 | – | – | 5.5 | 4.16 | 69 µM | 4.1 | 59% | 3.5 µM | 70 µM |
| CCCCC/C=C\C/C=C\C/C=C\C/C=C\CCCC(=O)NCC1CCCO1 (stereo not drawn) | 44% | – | 4.47 | 4.25 | 56 µM | < 4 | – | 34 µM | – |
| CCCCC/C=C\C/C=C\C/C=C\C/C=C\CCCC(=O)NC[C@H]1CCCO1 | – | – | 4.59 | 4.01 | 99 µM | 4.09 | – | 25 µM | 81 µM |
| CCCCC/C=C\C/C=C\C/C=C\C/C=C\CCCC(=O)OC[C@@H]1CO1 | – | – | 5.1 | – | 12 µM | < 4 | – | 8 µM | – |
| CCCCC/C=C\C/C=C\C/C=C\C/C=C\CCCC(=O)OCC1COC(C)(C)O1 (racemic) | – | – | 4.3 | 4 | 98 µM | 4 | – | 45 µM | 95 µM |
| CCCCC/C=C\C/C=C\C/C=C\C/C=C\CCCC(=O)OCC1CCCCO1 (racemic) | – | – | 5.26 | 4.3 | 51 µM | 4.58 | – | 5.6 µM | 26 µM |
| O=C(OCC1CCCCO1)c1ccccc1-c1ccccc1 (racemic) | 47% | – | < 4 | 4.37 | 43 µM | < 4 | 38% | – | – |
| O=C(OCC1CCCCO1)c1cccc(-c2ccccc2)c1 (racemic) | 49% | – | < 4 | 4.75 | 18 µM | < 4 | 36% | – | – |
| O=C(OCC1CCCCO1)c1ccc(-c2ccccc2)cc1 (racemic) | – | – | < 4 | 4.49 | 32 µM | 4.1 | 43% | – | 80 µM |
| CCCCC/C=C\C/C=C\C/C=C\C/C=C\CCCC(=O)NCC1COC(C)(C)O1 (racemic) | 45% | – | 4.8 | 4.05 | 90 µM | < 4 | 71% | 15 µM | – |
| CCCCC/C=C\C/C=C\C/C=C\C/C=C\CCCC(=O)OCC1CO1 (racemic) | – | – | – | – | 12 µM | 4.72 | – | – | 19 µM |
